Tests used:
[1] = The drug is tested on Alistipes indistinctus strain: DSM22520 for biotransformation. The drug concentrations were measured before and after a 12-h incubation by liquid-chromatography-coupled mass spectrometry (LC–MS); conditions: 2 µM
[2] = The drug is tested on Bacteroides caccae strain: ATCC43185 for biotransformation. The drug concentrations were measured before and after a 12-h incubation by liquid-chromatography-coupled mass spectrometry (LC–MS); conditions: 2 µM
[3] = The drug is tested on Bacteroides fragilis strain: ATCC43859 for biotransformation. The drug concentrations were measured before and after a 12-h incubation by liquid-chromatography-coupled mass spectrometry (LC–MS); conditions: 2 µM
[4] = The drug is tested on Bacteroides pectinophilus strain: ATCC43243 for biotransformation. The drug concentrations were measured before and after a 12-h incubation by liquid-chromatography-coupled mass spectrometry (LC–MS); conditions: 2 µM
[5] = The drug is tested on Clostridium ramosum strain: DSM1402 for biotransformation. The drug concentrations were measured before and after a 12-h incubation by liquid-chromatography-coupled mass spectrometry (LC–MS); conditions: thomasclavelia ramosa, 2 µM
[6] = The drug is tested on Clostridium symbiosum strain: ATCC14940 for biotransformation. The drug concentrations were measured before and after a 12-h incubation by liquid-chromatography-coupled mass spectrometry (LC–MS); conditions: 2 µM
[7] = The drug is tested on Coprococcus comes strain: ATCC27758 for biotransformation. The drug concentrations were measured before and after a 12-h incubation by liquid-chromatography-coupled mass spectrometry (LC–MS); type: ADME; parameters: dose 2 uM, timepoint 0 vs 12 hours; conditions: 2 µM
[8] = The drug is tested on Eubacterium ventriosum strain: ATCC27560 for biotransformation. The drug concentrations were measured before and after a 12-h incubation by liquid-chromatography-coupled mass spectrometry (LC–MS); type: ADME; parameters: dose 2 uM, timepoint 0 vs 12 hours; conditions: 2 µM
[9] = The drug is tested on Ruminococcus gnavus strain: ATCC29149 for biotransformation. The drug concentrations were measured before and after a 12-h incubation by liquid-chromatography-coupled mass spectrometry (LC–MS); conditions: mediterraneibacter gnavus, 2 µM
[10] = The drug is tested on Ruminococcus lactaris strain: ATCC29176 for biotransformation. The drug concentrations were measured before and after a 12-h incubation by liquid-chromatography-coupled mass spectrometry (LC–MS); conditions: 2 µM
[11] = The drug is tested on Subdoligranulum variabile strain: DSM15176 for biotransformation. The drug concentrations were measured before and after a 12-h incubation by liquid-chromatography-coupled mass spectrometry (LC–MS); conditions: 2 µM
[12] = The drug is tested on Edwardsiella tarda strain: ATCC23685 for biotransformation. The drug concentrations were measured before and after a 12-h incubation by liquid-chromatography-coupled mass spectrometry (LC–MS); conditions: 2 µM
[13] = The drug is tested on Enterobacter cancerogenus strain: ATCC35316 for biotransformation. The drug concentrations were measured before and after a 12-h incubation by liquid-chromatography-coupled mass spectrometry (LC–MS); conditions: 2 µM
[14] = The drug is tested on Escherichia coli strain: BW25113 for biotransformation. The drug concentrations were measured before and after a 12-h incubation by liquid-chromatography-coupled mass spectrometry (LC–MS); conditions: 2 µM
[15] = The drug is tested on Providencia rettgeri strain: DSM1131 for biotransformation. The drug concentrations were measured before and after a 12-h incubation by liquid-chromatography-coupled mass spectrometry (LC–MS); type: ADME; parameters: dose 2 uM, timepoint 0 vs 12 hours; conditions: 2 µM
[16] = bacteroides fragilis, 12 h, 2 µM
Description: The drug is tested on Bacteroides fragilis strain: 3397 (T10) for biotransformation. The drug concentrations were measured before and after a 12-h incubation by liquid-chromatography-coupled mass spectrometry (LC–MS)

[17] = bacteroides thetaiotaomicron, 12 h, 2 µM
Description: The drug is tested on Bacteroides thetaiotaomicron strain: 7330 for biotransformation. The drug concentrations were measured before and after a 12-h incubation by liquid-chromatography-coupled mass spectrometry (LC–MS)

[18] = parabacteroides johnsonii, 12 h, 2 µM
Description: The drug is tested on Parabacteroides johnsonii strain: DSM18315 for biotransformation. The drug concentrations were measured before and after a 12-h incubation by liquid-chromatography-coupled mass spectrometry (LC–MS)

[19] = enterocloster bolteae, 12 h, 2 µM
Description: The drug is tested on Clostridium bolteae strain: ATCCBAA-613 for biotransformation. The drug concentrations were measured before and after a 12-h incubation by liquid-chromatography-coupled mass spectrometry (LC–MS)

[20] = bacteroides intestinalis, 12 h, 2 µM
Description: The drug is tested on Bacteroides intestinalis strain: DSM17393 for biotransformation. The drug concentrations were measured before and after a 12-h incubation by liquid-chromatography-coupled mass spectrometry (LC–MS)

| Compound | Bacterial Biotransformation [1] | Bacterial Biotransformation [2] | Bacterial Biotransformation [3] | Bacterial Biotransformation [4] | Bacterial Biotransformation [5] | Bacterial Biotransformation [6] | Bacterial Biotransformation [7] | Bacterial Biotransformation [8] | Bacterial Biotransformation [9] | Bacterial Biotransformation [10] | Bacterial Biotransformation [11] | Bacterial Biotransformation [12] | Bacterial Biotransformation [13] | Bacterial Biotransformation [14] | Bacterial Biotransformation [15] | Bacterial Biotransformation [16] | Bacterial Biotransformation [17] | Bacterial Biotransformation [18] | Bacterial Biotransformation [19] | Bacterial Biotransformation [20] |
| --- | --- | --- | --- | --- | --- | --- | --- | --- | --- | --- | --- | --- | --- | --- | --- | --- | --- | --- | --- | --- |
| CC1OC(OC2C(O)CC(OC3C(O)CC(OC4CCC5(C)C(CCC6C5CCC5(C)C(C7=CC(=O)OC7)CCC65O)C4)OC3C)OC2C)CC(O)C1O (stereo unspecified) | Compound NOT metabolized | Compound NOT metabolized | Compound metabolized | Compound NOT metabolized | Compound NOT metabolized | Compound NOT metabolized | Compound NOT metabolized | Compound NOT metabolized | Compound NOT metabolized | Compound NOT metabolized | Compound NOT metabolized | Compound NOT metabolized | Compound NOT metabolized | Compound NOT metabolized | Compound NOT metabolized | Compound metabolized | Compound metabolized | Compound metabolized | Compound NOT metabolized | – |
| Br.COc1ccc2c(c1)[C@]13CCCC[C@@H]1[C@H](C2)N(C)CC3.O [DEXTROMETHORPHAN HYDROBROMIDE] | Compound NOT metabolized | Compound NOT metabolized | Compound NOT metabolized | Compound NOT metabolized | Compound NOT metabolized | Compound NOT metabolized | Compound NOT metabolized | Compound NOT metabolized | Compound NOT metabolized | Compound NOT metabolized | Compound NOT metabolized | Compound NOT metabolized | Compound NOT metabolized | Compound NOT metabolized | Compound NOT metabolized | Compound NOT metabolized | Compound NOT metabolized | – | Compound NOT metabolized | Compound NOT metabolized |
| COc1cc2nc(N3CCN(C(=O)C4COc5ccccc5O4)CC3)nc(N)c2cc1OC.CS(=O)(=O)O (stereo unspecified) [DOXAZOSIN MESYLATE] | Compound metabolized | Compound NOT metabolized | Compound NOT metabolized | Compound NOT metabolized | Compound NOT metabolized | Compound NOT metabolized | Compound NOT metabolized | Compound NOT metabolized | Compound NOT metabolized | Compound NOT metabolized | Compound NOT metabolized | Compound NOT metabolized | Compound NOT metabolized | Compound metabolized | Compound NOT metabolized | Compound NOT metabolized | Compound NOT metabolized | Compound NOT metabolized | – | Compound NOT metabolized |
| CN1CCN(C(=O)O[C@H]2c3nccnc3C(=O)N2c2ccc(Cl)cn2)CC1 [ESZOPICLONE] | Compound NOT metabolized | Compound NOT metabolized | Compound NOT metabolized | Compound NOT metabolized | Compound NOT metabolized | Compound NOT metabolized | Compound NOT metabolized | Compound NOT metabolized | Compound NOT metabolized | Compound NOT metabolized | Compound NOT metabolized | Compound NOT metabolized | Compound NOT metabolized | Compound NOT metabolized | Compound NOT metabolized | – | Compound NOT metabolized | Compound metabolized | Compound metabolized | – |
| O=C1[C@H](CC[C@H](O)c2ccc(F)cc2)[C@@H](c2ccc(O)cc2)N1c1ccc(F)cc1 [EZETIMIBE] | Compound NOT metabolized | – | Compound NOT metabolized | Compound NOT metabolized | Compound NOT metabolized | Compound NOT metabolized | Compound NOT metabolized | Compound metabolized | Compound NOT metabolized | Compound NOT metabolized | Compound NOT metabolized | Compound NOT metabolized | Compound NOT metabolized | Compound NOT metabolized | Compound NOT metabolized | Compound NOT metabolized | Compound NOT metabolized | Compound NOT metabolized | Compound NOT metabolized | – |
| Cc1ccc(S(=O)(=O)NC(=O)NN2CC3CCCC3C2)cc1 (stereo unspecified) [GLICLAZIDE] | Compound NOT metabolized | Compound NOT metabolized | Compound metabolized | Compound NOT metabolized | Compound NOT metabolized | Compound NOT metabolized | Compound NOT metabolized | Compound NOT metabolized | Compound NOT metabolized | Compound NOT metabolized | Compound NOT metabolized | Compound NOT metabolized | Compound NOT metabolized | Compound NOT metabolized | – | Compound metabolized | Compound NOT metabolized | Compound NOT metabolized | Compound NOT metabolized | Compound NOT metabolized |
| COC(=O)C1=C(C)NC(C)=C(C(=O)OC(C)C)C1c1cccc2nonc12 (stereo unspecified) [ISRADIPINE] | Compound NOT metabolized | – | Compound NOT metabolized | Compound NOT metabolized | Compound NOT metabolized | Compound NOT metabolized | Compound NOT metabolized | Compound NOT metabolized | Compound NOT metabolized | Compound NOT metabolized | Compound NOT metabolized | Compound NOT metabolized | Compound NOT metabolized | Compound NOT metabolized | Compound NOT metabolized | Compound NOT metabolized | Compound NOT metabolized | Compound NOT metabolized | Compound NOT metabolized | Compound NOT metabolized |

— ChEMBL document CHEMBL5303573, “Mapping human microbiome drug metabolism by gut bacteria and their genes” (Nature, 2019)
